Assay results reported in paper PMC11881906, “Development of xanthone derivatives as effective broad-spectrum antimicrobials: Disrupting cell wall and inhibiting DNA synthesis” (Science Advances, 2025).
Values after ≈ are worked out from the molar mass of the structure shown.

How the values were obtained:
K. pneumoniae = assay: MIC, summary over K. pneumoniae strains; assay type: cell-based; details: Klebsiella pneumoniae, two strains; read-out: MICs against K. pneumoniae
Procedure: MIC was determined using the broth microdilution method in accordance with Clinical and Laboratory Standards Institute guidelines. All compounds were dissolved in dimethyl sulfoxide (DMSO; final DMSO concentration of less than 0.5%) and sterile double-distilled water and then diluted with Mueller-Hinton broth (MHB). Each compound’s stock solution was serially twofold diluted, resulting in concentrations ranging from 0.39 to 100 μg/ml, and thereafter added to sterile 96-well plates. All bacterial cell suspensions were adjusted in MHB to attain a starting inoculum of 1 × 10^6 cells/ml. A total of 100 μl volume of the bacterial suspension was then added to each well. Following a 24-hour incubation at 37°C, the optical density at 600 nm (OD600) was confirmed by measuring absorbance at 600 nm with a BioTek microplate reader. […] All measurements were repeated three times with duplicates each time.

LPS = assay: BODIPY-TR-cadaverine displacement assay; assay type: binding
Procedure: (§1) The percentage of displacement from LTA-BODIPY/LPS-BODIPY by test compounds was determined according to BODIPY cadaverine displacement assay. […] The mixture was incubated in the dark for 30 min, and then the fluorescence was monitored at an excitation wavelength of 580 nm and an emission wavelength of 620 nm using a BioTek multidetector microplate reader. The percentage of displacement from LTA-BODIPY/LPS-BODIPY was calculated by the following formula: % Displacement = (FS − Fmin)/(Fmax − Fmin) × 100. Where FS is the fluorescence intensity observed at a given test compound concentration, Fmin is the fluorescence intensity of BODIPY with LTA/LPS and DMSO, and Fmax is the fluorescence intensity of BODIPY with only DMSO. All tests were carried out at least twice and with biological replicates.

LTA = assay: BODIPY-TR-cadaverine displacement assay; assay type: binding
Procedure: as §1

S. aureus ATCC 29213 = assay: Murine corneal infection model; assay type: in vivo, mice; details: topical, four times daily for 3 days; XT17 5 mg/ml, vancomycin 50 mg/ml; vs 5% glucose control
Text: Female C57BL/6 mice (average weight, 20 g) were used for the in vivo efficacy experiments. Mice were housed in a specific pathogen–free facility on a 12-hour light-dark cycle, under the condition with ad libitum access to irradiation sterilized rodent diet and aseptic water. […]. These in vivo experiments were approved by the Experimental Animal Center of South China Agricultural University and conducted in accordance with the policies of the Ministry of Health of China.
The in vivo efficacy of compound XT17 was investigated in a murine corneal infection model. Before infection, the mice were immunosuppressed with three intraperitoneal injections of cyclophosphamide (100 mg/kg) over 5 days. After anesthesia with 2.5% avertin (500 mg/kg, ip), the left corneas of mice were scratched with 15 μl of S. aureus ATCC 29213 or P. aeruginosa ATCC 9027 (approximately 5 × 10^7 CFU/ml). Following 1 day of infection, the infected mice were randomly assigned into […] (n = 5) and subsequently administered with 0.5% compound XT17, 5% glucose solution, 5% vancomycin, or 0.3% gatifloxacin topically. S. aureus–caused murine corneal infections were treated four times a day for three consecutive days. Only 2 days of treatment were given for P. aeruginosa–caused murine corneal infections. On the first day, the drug was administered every 20 min for 1 hour and then three times at 2-hour intervals on the second day. The mice were given a 5% glucose solution as a negative control in the absence of any antimicrobial agent treatment. The infected corneas were collected after the mice were euthanized, and the number of viable bacteria was counted using MHA plates.

CC(C)=CCOc1cc(OCCCNC(=N)N)cc2oc3cc(OCCCNC(=N)N)ccc3c(=O)c12 [XT17]
MIC (K. pneumoniae): 6.25 to 12.5 µg/mL (≈ 12.2 to 24.5 µM)
% Displacement from LPS (LPS; 1× MIC): 39.22%
% Displacement from LPS (LPS; 2× MIC): 52.67%
% Displacement from LPS (LPS; 4× MIC): 69.53%
% Displacement from LPS (LPS; 8× MIC): 75.50%
% Displacement from LTA (LTA; 1× MIC): 2.86%
% Displacement from LTA (LTA; 2× MIC): 14.81%
% Displacement from LTA (LTA; 4× MIC): 17.88%
% Displacement from LTA (LTA; 8× MIC): 32.95%
log reduction in viable bacterial colonies in the infected corneas (S. aureus ATCC 29213): 6.10 log
